Source: patent US12414961B2, “Substituted nucleosides and nucleotides for treating viral infections” (priority 2013, dated 2025)

What was measured:
[1] = Cytotoxicity (CC50) A204; format: cell-based; conditions: human, A204 cells
[2] = Cytotoxicity (CC50) IEC-6; format: cell-based; conditions: rat, IEC-6 cells
[3] = Cytotoxicity (CC50) H9c; format: cell-based; conditions: rat, H9c cells
[4] = Cytotoxicity (CC50) CEM; conditions: human, CEM cells
[5] = Cytotoxicity (CC50) Huh-7; conditions: human, Huh-7 cells
[6] = Cytotoxicity (CC50) HepG2; conditions: human, HepG2 cells
[7] = Cytotoxicity (CC50) BxPC3; conditions: human, BxPC3 cells
[8] = Cytotoxicity in Vero cells (Dengue assay); conditions: African green monkey
[9] = Cytotoxicity in Huh-7 cells (Dengue assay); conditions: human, Huh-7 cells
[10] = tested on: Dengue Type 2; experiment: Anti-Dengue virus cytoprotection assay, Vero cells; conditions: read-out: Dengue Type 2 Vero Cells (EC50 uM)
[11] = tested on: Dengue Type 2; experiment: Anti-Dengue virus cytoprotection assay, Huh-7 cells; conditions: Huh-7, read-out: Dengue Type 2 Huh-7 Cells (EC50 uM)
[12] = tested on: Huh-7 cells; experiment: Cytotoxicity in Huh-7 cells (Dengue assay); conditions: read-out: CC50 uM; Cell Line Huh-7; […], 3, 4 table
[13] = tested on: HBV; experiment: HBV antiviral assay; format: cell-based; conditions: Hepatitis B virus
Description: Ten microliters of cell culture supernatant collected on the sixth day was diluted in qPCR dilution buffer (40 μg/mL sheared salmon sperm DNA) and boiled for 15 minutes. Quantitative real time PCR was performed in […] using an Applied Biosystems 7900HT Sequence Detection System and the supporting SDS 2.4 software. Five microliters (5 μL) of boiled DNA for each sample and serial 10-fold dilutions of a quantitative DNA standard were subjected to real time Q-PCR using Platinum Quantitative PCR SuperMix-UDG (Invitrogen) and specific DNA oligonucleotide primers (IDT, Coralville, […]) HBV-AD38-qF1 (5′-[…] -3′) (SEQ ID NO: 1), HBV-AD38-qR1 (5′-AGT CCA AGA GTY CTC TTA TRY AAG ACC TT-3′) (SEQ ID NO: 2), and HBV-AD38-qP1 (5′-FAM CCG TGT GCA/ZEN/[…] -3′BHQ1) (SEQ ID NO: 3) at a final concentration of 0.2 μM for each primer in a total reaction volume of 15 μL. The HBV DNA copy number in each sample was interpolated from the standard curve by the SDS.24 software and the data were imported into an Excel spreadsheet for analysis.

[14] = Cytotoxicity in HepG2 cells (HBV assay); format: cell-based; conditions: human, HepG2.2.15 cells; beside HBV
Description: The 50% cytotoxic concentration for the test materials are derived by measuring the reduction of the tetrazolium dye XTT in the treated tissue culture plates. XTT is metabolized by the mitochondrial enzyme […] to a soluble formazan product in metabolically active cells. […] The 2-4 hour incubation has been empirically determined to be within linear response range for XTT dye reduction with the indicated numbers of cells for each assay. […] Data were collected by Softmax 4.6 software and imported into an Excel spreadsheet for analysis.

[15] = tested on: Adenovirus; experiment: Adenovirus antiviral assay; format: cell-based; conditions: unidentified adenovirus
[16] = tested on: Huh-7 cells; experiment: Cytotoxicity in Huh-7 cells (Adenovirus, HSV-1 assays); format: cell-based, human; conditions: beside HSV-1
[17] = tested on: HSV-1; experiment: HSV-1 antiviral assay; format: cell-based; conditions: Human alphaherpesvirus 1
[18] = tested on: HIV; experiment: HIV infected PBMC assay; format: cell-based; conditions: Human immunodeficiency virus 1, PBMC
Description: Fresh human peripheral blood mononuclear cells (PBMCs) were obtained from a commercial source (Biological Specialty) and were determined to be seronegative for HIV and HBV. Depending on the volume of donor blood received, the leukophoresed blood cells were washed several times with PBS. After washing, the leukophoresed blood was diluted 1:1 with Dulbecco's phosphate buffered saline (PBS) and layered over 15 mL of Ficoll-Hypaque density gradient in a 50 ml conical centrifuge tube. These tubes were centrifuged for 30 min at 600 g. Banded PBMCs were gently aspirated from the resulting interface and washed three times with PBS. […] After incubation, PBMCs were centrifuged and resuspended in tissue culture medium. The cultures were maintained until use by half-volume culture changes with fresh IL-2 containing tissue culture medium every 3 days. […]
Following addition of test compound to the wells, 50 uL of a predetermined dilution of HIV virus (prepared from 4× of final desired in-well concentration) was added, and mixed well. […] After 7 days in culture, HIV-1 replication was quantified in the tissue culture supernatant by measurement of reverse transcriptase (RT) activity. […]
Reverse Transcriptase Activity Assay—Reverse transcriptase activity was measured in cell-free supernatants using a standard radioactive incorporation polymerization assay. […]

[19] = Cytotoxicity in PBM cells; format: cell-based; conditions: human, peripheral blood mononuclear cells (PBMCs), PHA-P stimulated; beside HIV
[20] = tested on: HCMV; experiment: HCMV antiviral assay; format: cell-based; conditions: Human betaherpesvirus 5
[21] = Cytotoxicity in MRC-5 cells (HCMV, VZV assays); format: cell-based; conditions: human, MRC-5 cells; beside HCMV
[22] = tested on: MRC-5 Cells; experiment: Cytotoxicity in MRC-5 cells (HCMV, VZV assays); format: cell-based; conditions: beside VZV
[23] = tested on: VZV; experiment: VZV antiviral assay; format: cell-based; conditions: Human alphaherpesvirus 3

CC(C)OC(=O)[C@H](C)NP(=O)(OC[C@H]1O[C@@H](n2ccc(=O)[nH]c2=S)C(C)(O)[C@H]1O)Oc1ccccc1 (some centres unmarked) [drawing 387]
CC50 [1]: 98 µM
CC50 [2]: > 200 µM
CC50 [3]: > 200 µM
CC50 [4]: > 300 µM
CC50 [5]: > 400 µM
CC50 [6]: > 400 µM
CC50 [7]: > 300 µM
CC50 [8]: > 100 µM
CC50 [9]: > 100 µM
EC50 [10]: 2.02 µM
EC50 [11]: 5.1 µM

CC(C)OC(=O)[C@H](C)N[P@](=O)(OC[C@H]1O[C@@H](n2ccc(=O)[nH]c2=S)C(C)(O)[C@H]1O)Oc1ccccc1 (some centres unmarked) [drawing 393]
CC50 [12]: > 100 µM

CC(C)OC(=O)[C@H](C)NP(=O)(OC[C@H]1O[C@@H](n2ccc(=O)[nH]c2=S)C(C)(O)[C@H]1O)Oc1ccccc1 (some centres unmarked) [drawing 394]
EC50 [13]: > 100 µM
CC50 at 6 days [14]: > 100 µM
EC50 [15]: > 100 µM
CC50 [16]: > 100 µM
EC50 [17]: > 100 µM
EC50 [18]: > 100 µM
CC50 at 7 days [19]: > 100 µM
EC50 [20]: > 100 µM
CC50 [21]: > 100 µM
CC50 [22]: > 100 µM
EC50 [23]: > 100 µM
